From ChEMBL document CHEMBL5244205, “Discovery of tricyclic dipyrrolopyridine derivatives as novel JAK inhibitors” (Bioorg Med Chem, 2017)

System: not listed separately
Assay: Volume of distribution in Sprague-Dawley rat at 1 mg/kg, iv measured up to 24 hrs by LC-MS/MS analysis
Assay type: ADME, organism-based
Conditions: in vivo
With `C[C@@H]1CCN(C(=O)CC#N)C[C@@H]1n1c(=O)[nH]c2cnc3[nH]ccc3c21` (racemic) the Vd was 3.62 L/kg.

System: not listed separately
Assay: Cmax in Sprague-Dawley rat at 1 mg/kg, po measured up to 24 hrs by LC-MS/MS analysis
Assay type: ADME, organism-based
Parameters: time < 24 hrs, dose 1 mg/kg, route po
Conditions: in vivo
For `C[C@@H]1CCN(C(=O)CC#N)C[C@@H]1n1c(=O)[nH]c2cnc3[nH]ccc3c21` (racemic), the Cmax was 2.98 ng/mL.

Biological target: Calcium/calmodulin-dependent protein kinase type II subunit alpha (Homo sapiens, UniProt Q9UQM7)
Assay: Inhibition of CAMK2alpha (unknown origin) at 1000 nM relative to control
Conditions: not given
`C[C@@H]1CCN(C(=O)CC#N)C[C@@H]1n1ccc2cnc3[nH]cc(C#N)c3c21` showed an inhibition of 54%.

System: not listed separately
Assay: AUC (0 to 24 hrs) in Sprague-Dawley rat at 1 mg/kg, po measured up to 24 hrs by LC-MS/MS analysis
Assay type: ADME, organism-based
Parameters: dose 1 mg/kg, time < 24 hrs, route po
Conditions: in vivo
Work on `C[C@@H]1CCN(C(=O)CC#N)C[C@@H]1n1c(=O)[nH]c2cnc3[nH]ccc3c21` (racemic) yielded an AUC(0-t) at 24 h of 11.8 ng·h/mL.

Biological target: Serine/threonine-protein kinase Chk1 (Homo sapiens) (UniProt O14757)
Assay: Inhibition of CHK1 (unknown origin) at 1000 nM relative to control
Conditions: not given
Compound `C[C@@H]1CCN(C(=O)CC#N)C[C@@H]1n1ccc2cnc3[nH]cc(C#N)c3c21` has an inhibition of 59%.

Biological target: Cyclin-dependent kinase 2 (Homo sapiens, UniProt P24941)
Assay: Inhibition of CDK2 (unknown origin) at 1000 nM relative to control
Conditions: not given
For `C[C@@H]1CCN(C(=O)CC#N)C[C@@H]1n1ccc2cnc3[nH]cc(C#N)c3c21`, the inhibition was 91%.

Biological target: Mitogen-activated protein kinase 8 (Homo sapiens, UniProt P45983)
Sequence (P45983 whole entry): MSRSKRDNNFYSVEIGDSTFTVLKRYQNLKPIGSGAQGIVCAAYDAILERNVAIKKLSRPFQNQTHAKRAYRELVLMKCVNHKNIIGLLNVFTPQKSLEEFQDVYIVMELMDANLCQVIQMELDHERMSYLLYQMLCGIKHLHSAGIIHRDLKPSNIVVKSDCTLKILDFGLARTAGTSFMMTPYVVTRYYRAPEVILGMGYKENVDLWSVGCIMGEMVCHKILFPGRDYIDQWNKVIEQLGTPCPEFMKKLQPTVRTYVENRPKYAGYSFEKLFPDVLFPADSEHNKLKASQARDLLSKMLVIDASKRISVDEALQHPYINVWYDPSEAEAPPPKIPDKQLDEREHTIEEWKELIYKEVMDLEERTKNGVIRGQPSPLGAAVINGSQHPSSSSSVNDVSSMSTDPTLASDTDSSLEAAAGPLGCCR
Assay: Inhibition of JNK1 (unknown origin) at 1000 nM relative to control
Conditions: not given
`C[C@@H]1CCN(C(=O)CC#N)C[C@@H]1n1ccc2cnc3[nH]cc(C#N)c3c21` gave an inhibition of 59%.

Biological target: Rho-associated protein kinase 1 (Homo sapiens) (UniProt Q13464)
Sequence (Q13464 2-1354 limits assumed): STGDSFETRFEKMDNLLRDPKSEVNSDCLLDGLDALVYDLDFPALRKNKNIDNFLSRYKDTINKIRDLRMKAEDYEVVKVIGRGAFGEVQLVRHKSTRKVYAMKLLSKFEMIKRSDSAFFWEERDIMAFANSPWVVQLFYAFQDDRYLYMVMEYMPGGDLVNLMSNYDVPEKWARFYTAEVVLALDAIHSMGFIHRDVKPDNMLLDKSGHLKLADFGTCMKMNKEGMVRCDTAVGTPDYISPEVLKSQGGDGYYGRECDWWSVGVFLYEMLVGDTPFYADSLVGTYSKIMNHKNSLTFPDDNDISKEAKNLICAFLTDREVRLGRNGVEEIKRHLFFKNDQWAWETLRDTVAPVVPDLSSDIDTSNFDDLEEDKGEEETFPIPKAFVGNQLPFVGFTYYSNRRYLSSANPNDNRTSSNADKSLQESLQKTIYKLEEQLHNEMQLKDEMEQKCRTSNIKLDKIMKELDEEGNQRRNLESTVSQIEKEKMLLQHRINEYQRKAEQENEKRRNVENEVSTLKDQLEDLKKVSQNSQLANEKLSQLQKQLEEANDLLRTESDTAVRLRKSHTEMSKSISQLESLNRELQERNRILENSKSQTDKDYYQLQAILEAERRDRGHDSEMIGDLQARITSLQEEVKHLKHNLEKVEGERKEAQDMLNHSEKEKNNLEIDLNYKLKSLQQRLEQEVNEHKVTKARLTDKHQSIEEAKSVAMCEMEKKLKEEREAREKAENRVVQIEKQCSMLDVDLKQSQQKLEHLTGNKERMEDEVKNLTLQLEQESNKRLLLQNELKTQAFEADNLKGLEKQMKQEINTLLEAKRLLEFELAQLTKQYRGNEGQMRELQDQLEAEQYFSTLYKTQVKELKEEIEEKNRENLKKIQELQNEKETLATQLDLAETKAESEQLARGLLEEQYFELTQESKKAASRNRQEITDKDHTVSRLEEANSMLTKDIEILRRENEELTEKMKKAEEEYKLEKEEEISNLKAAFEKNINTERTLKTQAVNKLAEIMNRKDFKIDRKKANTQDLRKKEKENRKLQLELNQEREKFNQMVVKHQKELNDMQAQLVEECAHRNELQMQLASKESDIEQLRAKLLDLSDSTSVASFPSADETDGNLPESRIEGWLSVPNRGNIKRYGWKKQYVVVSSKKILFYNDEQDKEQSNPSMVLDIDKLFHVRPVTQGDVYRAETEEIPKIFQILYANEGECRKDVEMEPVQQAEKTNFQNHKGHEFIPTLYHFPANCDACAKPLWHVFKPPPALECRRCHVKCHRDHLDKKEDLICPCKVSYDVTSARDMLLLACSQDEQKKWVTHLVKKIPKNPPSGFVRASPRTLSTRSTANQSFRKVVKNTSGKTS
Assay: Inhibition of ROCK1 (unknown origin) at 1000 nM relative to control
Conditions: not given
`C[C@@H]1CCN(C(=O)CC#N)C[C@@H]1n1ccc2cnc3[nH]cc(C#N)c3c21` showed an inhibition of 75%.
`C[C@@H]1CCN(C(=O)CC#N)C[C@@H]1n1ccc2cnc3[nH]ccc3c21` gave an inhibition of 75%.

Biological target: T1, Tyrosine-protein kinase JAK3 (Homo sapiens, UniProt P52333)
T1 sequence (P52333 whole entry): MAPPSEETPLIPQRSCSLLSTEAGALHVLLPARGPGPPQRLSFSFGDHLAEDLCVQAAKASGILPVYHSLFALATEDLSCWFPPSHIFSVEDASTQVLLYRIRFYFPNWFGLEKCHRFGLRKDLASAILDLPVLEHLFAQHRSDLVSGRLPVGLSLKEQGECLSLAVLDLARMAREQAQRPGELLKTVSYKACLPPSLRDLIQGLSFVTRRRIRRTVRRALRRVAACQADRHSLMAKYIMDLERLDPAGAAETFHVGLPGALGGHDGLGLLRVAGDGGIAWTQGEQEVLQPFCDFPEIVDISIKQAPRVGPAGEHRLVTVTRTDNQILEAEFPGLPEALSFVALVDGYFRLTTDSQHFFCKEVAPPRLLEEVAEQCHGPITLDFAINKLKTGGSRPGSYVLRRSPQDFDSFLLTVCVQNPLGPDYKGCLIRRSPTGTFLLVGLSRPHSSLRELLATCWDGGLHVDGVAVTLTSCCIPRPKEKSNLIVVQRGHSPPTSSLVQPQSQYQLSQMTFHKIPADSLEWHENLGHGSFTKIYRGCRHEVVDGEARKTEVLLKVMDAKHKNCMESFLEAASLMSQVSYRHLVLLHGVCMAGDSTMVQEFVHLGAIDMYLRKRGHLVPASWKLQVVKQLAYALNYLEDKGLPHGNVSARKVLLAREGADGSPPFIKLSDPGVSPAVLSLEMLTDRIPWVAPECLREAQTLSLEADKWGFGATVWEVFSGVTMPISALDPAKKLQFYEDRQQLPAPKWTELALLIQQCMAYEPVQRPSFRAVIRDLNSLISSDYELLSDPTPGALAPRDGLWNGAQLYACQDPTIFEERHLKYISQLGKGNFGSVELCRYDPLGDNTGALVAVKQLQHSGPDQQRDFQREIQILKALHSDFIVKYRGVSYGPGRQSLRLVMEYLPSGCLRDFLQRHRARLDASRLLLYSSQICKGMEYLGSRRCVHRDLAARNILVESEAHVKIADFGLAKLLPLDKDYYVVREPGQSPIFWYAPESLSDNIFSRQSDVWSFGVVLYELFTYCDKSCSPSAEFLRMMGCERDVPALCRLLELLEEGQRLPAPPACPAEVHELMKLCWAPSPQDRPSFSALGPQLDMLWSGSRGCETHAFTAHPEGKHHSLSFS
Assay: not given
Conditions: not given
In the case of `C[C@@H]1CCN(c2ccc(C#N)cn2)C[C@@H]1n1c(=O)[nH]c2cnc3[nH]ccc3c21` (racemic), the IC50 is reported as 1.6 nM.

System: not listed separately
Assay: Half life in Sprague-Dawley rat at 1 mg/kg, po measured up to 24 hrs by LC-MS/MS analysis
Assay type: ADME, organism-based
Conditions: in vivo
For `C[C@@H]1CCN(C(=O)CC#N)C[C@@H]1n1c(=O)[nH]c2cnc3[nH]ccc3c21` (racemic), the half-life was 11.8 h.

Biological target: Protein kinase C alpha type (Homo sapiens) (UniProt P17252)
Assay: Inhibition of PKCalpha (unknown origin) at 1000 nM relative to control
Conditions: not given
Compound `C[C@@H]1CCN(C(=O)CC#N)C[C@@H]1n1ccc2cnc3[nH]cc(C#N)c3c21` has an inhibition of 98%.
`C[C@@H]1CCN(C(=O)CC#N)C[C@@H]1n1ccc2cnc3[nH]ccc3c21` showed an inhibition of 67%.

Species on record: Homo sapiens
Assay: Selectivity index, ratio of IC50 for human JAK3 to IC50 for human JAK2
Conditions: not given
For `C[C@@H]1CCN(C(=O)CC#N)C[C@@H]1n1ccc2cnc3[nH]cc(C#N)c3c21`, the Ratio IC50 was 10.

Biological target: Glycogen synthase kinase-3 beta (Homo sapiens, UniProt P49841)
Assay: Inhibition of GSK3beta (unknown origin) at 1000 nM relative to control
Conditions: not given
Work on `C[C@@H]1CCN(C(=O)CC#N)C[C@@H]1n1ccc2cnc3[nH]cc(C#N)c3c21` yielded an inhibition of 92%.

System: not listed separately
Assay: Half life in Sprague-Dawley rat at 1 mg/kg, iv measured up to 24 hrs by LC-MS/MS analysis
Assay type: ADME, organism-based
Conditions: in vivo
For `C[C@@H]1CCN(C(=O)CC#N)C[C@@H]1n1c(=O)[nH]c2cnc3[nH]ccc3c21` (racemic), the half-life was 1.13 h.

System: not listed separately
Assay: in vitro
Conditions: PAMPA, pH 6.5, permeability
Description: Permeability of the compound in pH 6.5 incubated for 2 hrs by PAMPA based HPLC analysis
With `C[C@@H]1CCN(c2ccc(C#N)cn2)C[C@@H]1n1c(=O)[nH]c2cnc3[nH]ccc3c21` (racemic) the Papp at 2 h was 8.8 ×10⁻⁶ cm/s.
Compound `C[C@@H]1CCN(C(=O)CC#N)C[C@@H]1n1c(=O)[nH]c2cnc3[nH]ccc3c21` (racemic) has a Papp at 2 h of less than 0.7 ×10⁻⁶ cm/s.

Biological target: Dual specificity mitogen-activated protein kinase kinase 1 (Homo sapiens, UniProt Q02750)
Assay: Inhibition of MAP2K1 (unknown origin) at 1000 nM relative to control
Conditions: not given
In the case of `C[C@@H]1CCN(C(=O)CC#N)C[C@@H]1n1ccc2cnc3[nH]cc(C#N)c3c21`, the inhibition is reported as 90%.

Biological target: Tyrosine-protein kinase JAK2 (Homo sapiens, UniProt O60674)
Sequence (O60674 whole entry): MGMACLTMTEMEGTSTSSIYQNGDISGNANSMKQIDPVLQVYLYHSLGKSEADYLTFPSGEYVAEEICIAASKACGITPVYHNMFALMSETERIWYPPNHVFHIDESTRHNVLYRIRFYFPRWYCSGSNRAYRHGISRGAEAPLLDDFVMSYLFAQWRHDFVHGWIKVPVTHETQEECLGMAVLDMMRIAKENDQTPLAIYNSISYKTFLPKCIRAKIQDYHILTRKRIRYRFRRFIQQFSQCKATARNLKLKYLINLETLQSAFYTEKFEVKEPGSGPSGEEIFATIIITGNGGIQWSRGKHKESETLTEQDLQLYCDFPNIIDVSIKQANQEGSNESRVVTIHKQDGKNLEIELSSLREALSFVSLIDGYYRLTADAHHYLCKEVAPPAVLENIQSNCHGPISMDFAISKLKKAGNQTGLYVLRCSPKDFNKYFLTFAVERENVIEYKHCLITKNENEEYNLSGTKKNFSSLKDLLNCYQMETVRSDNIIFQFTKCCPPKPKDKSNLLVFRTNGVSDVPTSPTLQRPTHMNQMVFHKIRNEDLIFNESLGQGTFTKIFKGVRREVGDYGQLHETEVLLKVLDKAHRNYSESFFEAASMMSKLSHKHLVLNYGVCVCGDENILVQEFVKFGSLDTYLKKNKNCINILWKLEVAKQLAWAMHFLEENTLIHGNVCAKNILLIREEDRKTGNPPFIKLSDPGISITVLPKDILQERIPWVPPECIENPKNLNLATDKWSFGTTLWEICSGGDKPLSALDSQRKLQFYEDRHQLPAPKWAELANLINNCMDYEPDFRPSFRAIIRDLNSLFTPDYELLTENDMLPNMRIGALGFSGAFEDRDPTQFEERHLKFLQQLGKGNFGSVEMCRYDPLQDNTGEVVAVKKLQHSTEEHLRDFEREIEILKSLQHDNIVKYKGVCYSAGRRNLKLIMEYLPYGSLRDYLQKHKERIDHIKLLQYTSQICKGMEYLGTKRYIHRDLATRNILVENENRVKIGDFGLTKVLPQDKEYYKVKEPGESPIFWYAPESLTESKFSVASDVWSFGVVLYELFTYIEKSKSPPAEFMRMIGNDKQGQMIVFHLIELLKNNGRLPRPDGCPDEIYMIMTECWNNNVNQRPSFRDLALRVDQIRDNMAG
Assay: not given
Conditions: not given
`C[C@@H]1CCN(c2ccc(C#N)cn2)C[C@@H]1n1c(=O)[nH]c2cnc3[nH]ccc3c21` (racemic) gave an IC50 of 4.5 nM.

Biological target: RAC-alpha serine/threonine-protein kinase (Homo sapiens, UniProt P31749)
Sequence (P31749 whole entry): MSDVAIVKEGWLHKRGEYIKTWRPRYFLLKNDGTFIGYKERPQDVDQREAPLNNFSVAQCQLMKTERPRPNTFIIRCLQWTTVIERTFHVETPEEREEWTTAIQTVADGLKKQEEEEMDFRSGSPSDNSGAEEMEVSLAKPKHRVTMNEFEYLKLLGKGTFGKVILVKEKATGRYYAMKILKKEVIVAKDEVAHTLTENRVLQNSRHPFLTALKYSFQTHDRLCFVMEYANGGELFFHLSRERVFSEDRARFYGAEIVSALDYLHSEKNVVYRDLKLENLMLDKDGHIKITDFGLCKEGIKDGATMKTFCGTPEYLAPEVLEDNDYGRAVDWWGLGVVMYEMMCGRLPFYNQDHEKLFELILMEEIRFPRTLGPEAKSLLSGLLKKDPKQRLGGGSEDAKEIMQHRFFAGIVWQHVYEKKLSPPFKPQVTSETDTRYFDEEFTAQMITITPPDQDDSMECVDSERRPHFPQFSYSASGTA
Assay: Inhibition of AKT1 (unknown origin) at 1000 nM relative to control
Conditions: not given
`C[C@@H]1CCN(C(=O)CC#N)C[C@@H]1n1ccc2cnc3[nH]cc(C#N)c3c21` gave an inhibition of 80%.

System: not listed separately
Assay: Tmax in Sprague-Dawley rat at 1 mg/kg, po measured up to 24 hrs by LC-MS/MS analysis
Assay type: ADME, organism-based
Conditions: in vivo
For `C[C@@H]1CCN(C(=O)CC#N)C[C@@H]1n1c(=O)[nH]c2cnc3[nH]ccc3c21` (racemic), the Tmax was 0.25 h.

Biological target: Tyrosine-protein kinase Lck (Homo sapiens) (UniProt P06239)
Sequence (P06239 2-509 limits assumed): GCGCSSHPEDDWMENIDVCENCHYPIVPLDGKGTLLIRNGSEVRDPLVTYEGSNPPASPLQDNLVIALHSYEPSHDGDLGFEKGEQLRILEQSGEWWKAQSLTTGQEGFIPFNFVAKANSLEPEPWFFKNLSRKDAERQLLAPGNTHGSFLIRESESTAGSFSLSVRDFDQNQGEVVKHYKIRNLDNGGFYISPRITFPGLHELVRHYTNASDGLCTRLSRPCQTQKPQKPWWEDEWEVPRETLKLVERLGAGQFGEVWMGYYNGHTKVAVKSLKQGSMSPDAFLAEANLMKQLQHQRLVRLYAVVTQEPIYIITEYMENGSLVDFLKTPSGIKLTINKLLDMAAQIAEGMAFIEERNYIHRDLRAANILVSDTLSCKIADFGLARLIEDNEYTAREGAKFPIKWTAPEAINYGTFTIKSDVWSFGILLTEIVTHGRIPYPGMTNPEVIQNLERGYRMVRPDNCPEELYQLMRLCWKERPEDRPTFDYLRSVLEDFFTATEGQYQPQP
Assay: Inhibition of LCK (unknown origin) at 1000 nM relative to control
Conditions: not given
Work on `C[C@@H]1CCN(C(=O)CC#N)C[C@@H]1n1ccc2cnc3[nH]cc(C#N)c3c21` yielded an inhibition of 88%.
For `C[C@@H]1CCN(C(=O)CC#N)C[C@@H]1n1ccc2cnc3[nH]ccc3c21`, the inhibition was 55%.

Biological target: Ribosomal protein S6 kinase beta-1 (Homo sapiens, UniProt P23443)
Assay: Inhibition of p70S6K (unknown origin) at 1000 nM relative to control
Conditions: not given
Compound `C[C@@H]1CCN(C(=O)CC#N)C[C@@H]1n1ccc2cnc3[nH]cc(C#N)c3c21` has an inhibition of 78%.

System: not listed separately
Assay: Oral availability in Sprague-Dawley rat at 1 mg/kg measured up to 24 hrs by LC-MS/MS analysis
Assay type: ADME, organism-based
Conditions: in vivo
With `C[C@@H]1CCN(C(=O)CC#N)C[C@@H]1n1c(=O)[nH]c2cnc3[nH]ccc3c21` (racemic) the bioavailability was 11.2%.

System: not listed separately
Assay: in vitro
Conditions: Sprague-Dawley, rat, liver microsomes, CLH
For `C[C@@H]1CCN(c2ccc(C#N)cn2)C[C@@H]1n1c(=O)[nH]c2cnc3[nH]ccc3c21` (racemic), the CLint scaled at 0.75 h, 0.2 µM was 195 mL/min/kg.

System: not listed separately
Assay: Clearance in Sprague-Dawley rat at 1 mg/kg, iv measured up to 24 hrs by LC-MS/MS analysis
Assay type: ADME, organism-based
Conditions: in vivo
For `C[C@@H]1CCN(C(=O)CC#N)C[C@@H]1n1c(=O)[nH]c2cnc3[nH]ccc3c21` (racemic), the clearance was 113 mL/min/kg.

Biological target: Proto-oncogene tyrosine-protein kinase Src (Homo sapiens, UniProt P12931)
Assay: Inhibition of SRC (unknown origin) at 1000 nM relative to control
Conditions: not given
With `C[C@@H]1CCN(C(=O)CC#N)C[C@@H]1n1ccc2cnc3[nH]cc(C#N)c3c21` the inhibition was 51%.

Biological target: High affinity nerve growth factor receptor (Homo sapiens, UniProt P04629)
Assay: Inhibition of TRKA (unknown origin) at 1000 nM relative to control
Conditions: not given
For `C[C@@H]1CCN(C(=O)CC#N)C[C@@H]1n1ccc2cnc3[nH]cc(C#N)c3c21`, the inhibition was 67%.

Biological target: Tyrosine-protein kinase JAK1 (Homo sapiens, UniProt P23458)
Assay: not given
Conditions: not given
For `C[C@@H]1CCN(c2ccc(C#N)cn2)C[C@@H]1n1c(=O)[nH]c2cnc3[nH]ccc3c21` (racemic), the IC50 was 9 nM.

System: not listed separately
Assay: AUC (0 to 24 hrs) in Sprague-Dawley rat at 1 mg/kg, iv measured up to 24 hrs by LC-MS/MS analysis
Assay type: ADME, organism-based
Parameters: dose 1 mg/kg, time < 24 hrs, route iv
Conditions: in vivo
For `C[C@@H]1CCN(C(=O)CC#N)C[C@@H]1n1c(=O)[nH]c2cnc3[nH]ccc3c21` (racemic), the AUC(0-t) at 24 h was 148 ng·h/mL.

Biological target: Aurora kinase C (Homo sapiens) (UniProt Q9UQB9)
Assay: Inhibition of AURC (unknown origin) at 1000 nM relative to control
Conditions: not given
`C[C@@H]1CCN(C(=O)CC#N)C[C@@H]1n1ccc2cnc3[nH]cc(C#N)c3c21` showed an inhibition of 77%.

Biological target: CYP3A4 (Homo sapiens, UniProt P08684)
Sequence (P08684 whole entry): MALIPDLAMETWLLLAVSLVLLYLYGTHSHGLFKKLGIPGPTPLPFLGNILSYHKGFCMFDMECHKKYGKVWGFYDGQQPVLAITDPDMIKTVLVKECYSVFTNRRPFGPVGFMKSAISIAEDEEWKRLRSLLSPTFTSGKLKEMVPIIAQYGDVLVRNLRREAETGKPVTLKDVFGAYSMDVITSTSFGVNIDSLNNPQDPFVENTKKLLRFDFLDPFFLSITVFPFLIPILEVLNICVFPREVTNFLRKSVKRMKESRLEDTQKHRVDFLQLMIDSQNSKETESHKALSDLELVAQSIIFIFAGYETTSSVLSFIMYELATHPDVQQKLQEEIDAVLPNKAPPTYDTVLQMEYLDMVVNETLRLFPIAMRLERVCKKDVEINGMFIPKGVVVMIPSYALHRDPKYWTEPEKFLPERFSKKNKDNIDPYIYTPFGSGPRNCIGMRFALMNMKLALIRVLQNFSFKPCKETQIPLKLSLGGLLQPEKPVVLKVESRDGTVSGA
Assay: in vitro
Conditions: liver microsomes, probe midazolam, TDI
`C[C@@H]1CCN(c2ccc(C#N)cn2)C[C@@H]1n1c(=O)[nH]c2cnc3[nH]ccc3c21` (racemic) gave an inhibition at 20 min, 5 µM of 29%.
In the case of `C[C@@H]1CCN(C(=O)CC#N)C[C@@H]1n1c(=O)[nH]c2cnc3[nH]ccc3c21` (racemic), the inhibition at 20 min, 5 µM is reported as 90%.
